The text below walks through data of patent publication US20240316047A1, “INHIBITORS OF RNA HELICASE DHX9 AND USES THEREOF” (ACCENT THERAPEUTICS, INC., priority 2022, published 2024).

The assay has as its target Human recombinant DHX9 protein (Homo sapiens (Human), UniProt Q08211). Kind of assay: DHX9 ATPase assay (ADP-Glo). The assay is classed as biochemical. As to conditions: for IC50: read-out: DHX9 Biochemical Inflection Point.

Sequence of Human recombinant DHX9 protein (Q08211 whole entry): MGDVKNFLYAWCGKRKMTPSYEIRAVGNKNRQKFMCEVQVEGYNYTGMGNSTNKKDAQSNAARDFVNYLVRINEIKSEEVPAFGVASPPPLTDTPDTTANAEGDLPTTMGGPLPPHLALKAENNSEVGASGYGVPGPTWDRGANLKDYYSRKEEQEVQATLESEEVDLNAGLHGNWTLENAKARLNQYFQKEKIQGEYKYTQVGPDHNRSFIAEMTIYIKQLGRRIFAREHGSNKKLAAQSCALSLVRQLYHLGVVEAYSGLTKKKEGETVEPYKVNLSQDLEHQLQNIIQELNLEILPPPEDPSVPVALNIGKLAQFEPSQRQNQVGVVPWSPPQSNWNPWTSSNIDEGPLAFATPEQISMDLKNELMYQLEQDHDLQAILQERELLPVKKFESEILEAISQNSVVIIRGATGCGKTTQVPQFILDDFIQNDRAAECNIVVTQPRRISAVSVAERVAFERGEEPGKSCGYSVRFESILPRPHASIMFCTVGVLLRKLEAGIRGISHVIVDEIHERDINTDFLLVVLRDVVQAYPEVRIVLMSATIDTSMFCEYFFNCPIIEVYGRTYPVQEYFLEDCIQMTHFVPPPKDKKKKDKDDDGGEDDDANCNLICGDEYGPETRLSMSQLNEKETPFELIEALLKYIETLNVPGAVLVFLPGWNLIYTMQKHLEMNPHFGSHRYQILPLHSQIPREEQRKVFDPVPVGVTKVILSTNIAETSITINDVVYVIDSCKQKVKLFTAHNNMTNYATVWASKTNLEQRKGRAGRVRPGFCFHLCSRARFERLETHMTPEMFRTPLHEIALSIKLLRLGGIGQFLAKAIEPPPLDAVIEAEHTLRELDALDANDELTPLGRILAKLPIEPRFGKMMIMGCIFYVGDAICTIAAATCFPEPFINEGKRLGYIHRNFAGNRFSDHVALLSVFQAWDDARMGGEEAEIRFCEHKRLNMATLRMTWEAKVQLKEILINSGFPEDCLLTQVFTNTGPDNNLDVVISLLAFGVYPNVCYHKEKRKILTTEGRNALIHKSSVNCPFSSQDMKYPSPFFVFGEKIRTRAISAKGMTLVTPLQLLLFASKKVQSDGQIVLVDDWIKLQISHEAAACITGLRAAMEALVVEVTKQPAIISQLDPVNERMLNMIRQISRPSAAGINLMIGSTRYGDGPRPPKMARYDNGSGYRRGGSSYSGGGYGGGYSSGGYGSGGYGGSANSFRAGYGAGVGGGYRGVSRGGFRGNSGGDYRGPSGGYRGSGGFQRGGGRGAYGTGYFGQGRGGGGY

With `Cc1sc(C(=O)Nc2cc(Cl)cc(NS(C)(=O)=O)c2)cc1-c1ncc(N2CC(F)(F)C2)cc1OC1CCC1` [Example 514], the “DHX9 Biochemical Max Inhibition” value is given as 73.8 and the IC50 came out at 73.3 nM.
On to `COC1CCN(c2ccc(-c3cc(C(=O)Nc4cc(Cl)cc(NS(C)(=O)=O)c4)cn3C)nc2)CC1` [Example 515, N-(3-chloro-5-methanesulfonamidophenyl)-5-[5-(4-methoxypiperidin-1-yl)pyridin-2-yl]-1-methyl-1H-pyrrole-3-carboxamide], for which the “DHX9 Biochemical Max Inhibition” value was found to be 73.9 and the IC50 was determined as 1.6 nM.
For the molecule `Cn1cc(C(=O)Nc2cc(Cl)cc(NS(C)(=O)=O)c2)cc1-c1ncc(N2CCC3(CC2)CC3(F)F)cc1F` [Example 518], the “DHX9 Biochemical Max Inhibition” value is 56.7 and the IC50 was 153 nM.
The matching figures for `Cn1cc(C(=O)Nc2cc(Cl)cc(NS(C)(=O)=O)c2)cc1-c1ccc(N2CC(S(C)(=O)=O)C2)cn1` [Example 519]: 71.2 and 8.1 nM.
As to `Cn1cc(C(=O)Nc2cc(Cl)cc(NS(C)(=O)=O)c2)cc1-c1ncc(N2CCCC2)cn1` [Example 520], the “DHX9 Biochemical Max Inhibition” value was 70.8 and the IC50 was found to be 13.7 nM.
For the molecule `Cn1cc(C(=O)Nc2cc(Cl)cc(NS(C)(=O)=O)c2)cc1-c1ncc(N2CCC2)cn1` [Example 521], the “DHX9 Biochemical Max Inhibition” value was determined as 71.8 and the IC50 was 3.5 nM.
`Cc1cc(C(=O)Nc2cc(Cl)cc(NS(C)(=O)=O)c2)cn1-c1ccc(N2CCC3(CC3)C2)cn1` [Example 522]: the “DHX9 Biochemical Max Inhibition” value came out at 71.8 and the IC50 amounted to 40.8 nM.
For the molecule `Cc1cc(C(=O)Nc2cc(Cl)cc(NS(C)(=O)=O)c2)cn1-c1ccc(N2C3CCC2CC3)cn1` [Example 523], the “DHX9 Biochemical Max Inhibition” value turned out to be 64.1 and the IC50 is 31.4 nM.
As to `Cn1cc(C(=O)Nc2cc(Cl)cc(NS(C)(=O)=O)c2)cc1-c1ncc(N2CC(C(F)(F)F)C2)cc1F` [Example 524, N-(3-chloro-5-methanesulfonamidophenyl)-5-{3-fluoro-5-[3-(trifluoromethyl)azetidin-1-yl]pyridin-2-yl}-1-methyl-1H-pyrrole-3-carboxamide], the “DHX9 Biochemical Max Inhibition” value is reported as 62.65 and the IC50 came to 32.9 nM.
The matching figures for `Cn1cc(C(=O)Nc2cc(Cl)cc(NS(C)(=O)=O)c2)cc1-c1ncc(N2CCC(F)(F)C2)cc1F` [Example 525]: 63.3 and 43.3 nM.
`Cn1cc(C(=O)Nc2cc(Cl)cc(NS(C)(=O)=O)c2)cc1-c1ncc(N2CCC(F)(F)C2)cn1` [Example 526]: the “DHX9 Biochemical Max Inhibition” value came to 61.7 and the IC50 turned out to be 17.4 nM.
The matching figures for `Cn1cc(C(=O)Nc2cc(Cl)cc(NS(C)(=O)=O)c2)cc1-c1ccc(N2CCC(F)(F)C2)cn1` [Example 527]: 65.3 and 42.4 nM.
The matching figures for `COc1cc(N2CC(F)(F)C2)cnc1-c1cc(C(=O)Nc2cc(Cl)cc(NS(=O)(=O)CCO)c2)sc1C` [Example 528]: 61.5 and 26.2 nM.
The matching figures for `Cc1sc(C(=O)Nc2cc(Cl)cc(NS(=O)(=O)CCO)c2)cc1-c1ncc(N2CC(C(F)(F)F)C2)cc1F` [Example 529]: 57.3 and 163 nM.
Turning to `Cn1cc(C(=O)Nc2cc(Cl)cc(NS(=O)(=O)C3CC3)c2)cc1-c1ccc(N2CC(F)(F)C2)cn1` [Example 530], the “DHX9 Biochemical Max Inhibition” value was 83.7 and the IC50 worked out at 427 nM.
The matching figures for `CCCS(=O)(=O)Nc1cc(Cl)cc(NC(=O)c2cc(-c3ccc(N4CC(F)(F)C4)cn3)n(C)c2)c1` [Example 531]: 72.3 and 2600 nM.
In the case of `Cc1sc(C(=O)Nc2cc(Cl)cc(NS(C)(=O)=O)c2)cc1-c1ncc(N2CC(F)(F)C2)cc1F` [Example 532, N-(3-chloro-5-methanesulfonamidophenyl)-4-[5-(3,3-difluoroazetidin-1-yl)-3-fluoropyridin-2-yl]-5-methylthiophene-2-carboxamide], the “DHX9 Biochemical Max Inhibition” value came out at 70.8 and the IC50 stood at 26.4 nM.
The matching figures for `Cc1sc(C(=O)Nc2cc(Cl)cc(NS(C)(=O)=O)c2)cc1-c1ccc(N2CC(F)(F)C2)cn1` [Example 533]: 83.2 and 7.2 nM.
The matching figures for `Cc1sc(C(=O)Nc2cc(Cl)cc(NS(C)(=O)=O)c2)cc1-c1ncc(N2CC(F)(F)C2)cc1OC(C)C` [Example 534]: 78.3 and 19.9 nM.
The matching figures for `COc1cc(N2CC(F)(F)C2)cnc1-c1cc(C(=O)Nc2cc(Cl)cc(NS(C)(=O)=O)c2)sc1C` [Example 535]: 84.2 and 3.4 nM.
As for `Cc1sc(C(=O)Nc2cc(Cl)cc(NS(C)(=O)=O)c2)cc1-c1ncc(N2CC(F)(F)C2)cc1OC(F)F` [Example 536], the “DHX9 Biochemical Max Inhibition” value worked out at 69.7 and the IC50 is 45.3 nM.
The matching figures for `Cc1cc(N2CC(F)(F)C2)cnc1-c1cc(C(=O)Nc2cc(Cl)cc(NS(C)(=O)=O)c2)sc1C` [Example 537]: 63 and 20.8 nM.
The matching figures for `Cn1cc(C(=O)Nc2cc(Cl)cc(NS(C)(=O)=O)c2)cc1-c1ccc(N2CCC2)cn1` [Example 538]: 66.9 and 9.2 nM.
In the case of `Cn1cc(C(=O)Nc2cc(Cl)cc(NS(C)(=O)=O)c2)cc1-c1ccc(N2CC(F)C2)cn1` [Example 539], the “DHX9 Biochemical Max Inhibition” value is listed as 76 and the IC50 stood at 18.1 nM.
The matching figures for `Cn1cc(C(=O)Nc2cc(Cl)cc(NS(C)(=O)=O)c2)cc1-c1ncc(F)cc1F` [Example 540, N-(3-chloro-5-methanesulfonamidophenyl)-5-(3,5-difluoropyridin-2-yl)-1-methyl-1H-pyrrole-3-carboxamide]: 67.5 and 17.4 nM.
As for `Cc1sc(C(=O)Nc2cc(Cl)cc(NS(C)(=O)=O)c2)cc1-c1ncc(OC(C)C)cn1` [Example 541, N-(3-chloro-5-(methylsulfonamido)phenyl)-4-(5-isopropoxypyrimidin-2-yl)-5-methylthiophene-2-carboxamide], the “DHX9 Biochemical Max Inhibition” value came to 74.1 and the IC50 is 15.1 nM.
`CCS(=O)(=O)Nc1cc(Cl)cc(NC(=O)c2cc(-c3ncc(F)cn3)n(C)c2)c1` [Example 542]: the “DHX9 Biochemical Max Inhibition” value is 73 and the IC50 amounted to 30 nM.
The matching figures for `CCS(=O)(=O)Nc1cc(Cl)cc(NC(=O)c2cc(-c3ncc(F)cc3F)n(C)c2)c1` [Example 543]: 60.2 and 48.6 nM.
The matching figures for `Cn1cc(C(=O)Nc2cc(Cl)cc(NS(C)(=O)=O)c2)cc1-c1ncc(F)cc1Cl` [Example 544]: 66.5 and 59 nM.
In the case of `Cc1cc(F)cnc1-c1cc(C(=O)Nc2cc(Cl)cc(NS(C)(=O)=O)c2)cn1C` [Example 545], the “DHX9 Biochemical Max Inhibition” value came out at 64.7 and the IC50 worked out at 74.2 nM.
Regarding `Cn1cc(C(=O)Nc2cc(Cl)cc(NS(C)(=O)=O)c2)cc1-c1ncc(F)cc1C#N` [Example 546], the “DHX9 Biochemical Max Inhibition” value is given as 73.6 and the IC50 was determined as 13.1 nM.
The matching figures for `Cn1cc(C(=O)Nc2cc(Cl)cc(NS(C)(=O)=O)c2)cc1-c1c(F)cc(F)cc1F` [Example 547]: 81.1 and 126 nM.
The matching figures for `CCS(=O)(=O)Nc1cc(Cl)cc(NC(=O)c2cc(-c3ncc(C)cc3F)n(C)c2)c1` [Example 548]: 64.6 and 27.3 nM.
The matching figures for `COc1cnc(-c2cc(C(=O)Nc3cc(Cl)cc(NS(C)(=O)=O)c3)cn2C)nc1` [Example 549]: 73.6 and 19 nM.
As to `COc1cc(C(F)(F)F)cnc1-c1cc(C(=O)Nc2cc(Cl)cc(NS(C)(=O)=O)c2)sc1C` [Example 550], the “DHX9 Biochemical Max Inhibition” value is reported as 99.8 and the IC50 turned out to be 25 nM.
Regarding `Cn1cc(C(=O)Nc2cc(Cl)cc(NS(C)(=O)=O)c2)cc1-c1cccc(N2CC(F)(F)C2)n1` [Example 551], the “DHX9 Biochemical Max Inhibition” value turned out to be 87.4 and the IC50 amounted to 105 nM.
For `Cn1cc(C(=O)Nc2cc(Cl)cc(NS(C)(=O)=O)c2)cc1-c1cc(N2CC(F)(F)C2)ccn1` [Example 552], the “DHX9 Biochemical Max Inhibition” value worked out at 89.7 and the IC50 stood at 16.6 nM.
The matching figures for `Cn1cc(C(=O)Nc2cc(Cl)cc(NS(C)(=O)=O)c2)cc1-c1ncc(OC(F)F)cn1` [Example 553]: 80.2 and 20.3 nM.
For the molecule `Cn1cc(C(=O)Nc2cc(Cl)cc(NS(C)(=O)=O)c2)cc1-c1ncc(C(F)(F)F)cc1F` [Example 554], the “DHX9 Biochemical Max Inhibition” value is on record as 79.7 and the IC50 came out at 76.1 nM.
The matching figures for `Cn1cc(C(=O)Nc2cc(Cl)cc(NS(C)(=O)=O)c2)cc1-c1ccc(OC(C)(C)C)cn1` [Example 555]: 61.9 and 43.6 nM.
For `Cn1cc(C(=O)Nc2cc(Cl)cc(NS(C)(=O)=O)c2)cc1-c1ncc(OC(C)(C)C)cn1` [Example 556], the “DHX9 Biochemical Max Inhibition” value was 64.8 and the IC50 came out at 20.6 nM.
The matching figures for `Cn1cc(C(=O)Nc2cc(Cl)cc(NS(C)(=O)=O)c2)cc1-c1ncc(OC(C)(C)C)cc1F` [Example 557]: 59.8 and 37.1 nM.
The matching figures for `Cn1cc(C(=O)Nc2cc(F)cc(NS(C)(=O)=O)c2)cc1-c1ncc(F)cc1F` [Example 558]: 78 and 45.8 nM.
With `Cc1sc(C(=O)Nc2cc(Cl)cc(NS(C)(=O)=O)c2)cc1-c1ncc(OC(C)(C)C)cn1` [Example 559], the “DHX9 Biochemical Max Inhibition” value is reported as 72.175 and the IC50 was 33.4 nM.
For the molecule `CS(=O)(=O)Nc1cc(Cl)cc(NC(=O)c2c[nH]c(-c3ncc(F)cc3F)c2)c1` [Example 560], the “DHX9 Biochemical Max Inhibition” value is recorded as 59 and the IC50 is 51 nM.
